# Laboratory results as given in patent publication US20020035061A1, “COMPOSITIONS AND METHODS FOR TREATING INFECTIONS USING CATIONIC PEPTIDES ALONE OR IN COMBINATION WITH ANTIBIOTICS” (priority 1996, published 2002).
# Where two headings read alike, the source gives them in different places. Peptide text beside a SMILES is read from it.
# What was measured:
# S. aureus [1] = experiment: microbe, parasite or virus in culture; assay type: cell-based
# [2] = tested on: microorganisms with acquired resistance; experiment: microbe, parasite or virus in culture; assay type: cell-based; settings: for Peptide MIC Alone: Ciprofloxacin section
# bacterial isolates = experiment: microbe, parasite or virus in culture; assay type: cell-based; settings: for FIC: peptide + Ciprofloxacin
# [3] = tested on: inherently resistant microorganisms; experiment: microbe, parasite or virus in culture; assay type: cell-based
# E. coli = assay type: cell-based; settings: for Peptide MIC values: agarose dilution
# K. pneumoniae = assay type: cell-based
# E. faecium = assay type: cell-based
# E. cloacae = assay type: cell-based; settings: E. cloacae strain ECL007
# S. aureus [4] = assay type: cell-based; settings: for Peptide MIC values: agarose dilution
# E. faecalis = assay type: cell-based
# S. epidermidis = assay type: cell-based
# S. marcescens = assay type: cell-based
# [5] = tested on: MSSA (Smith, ATCC # 19640); experiment: In vivo efficacy, MSSA infection; design: species or system S. aureus; settings: formulation D, 60 min post-infection, end of eight day observation
# S. maltophilia = assay type: cell-based
# A. calcoaceticus = assay type: cell-based; settings: A. calcoaceticus strain AC001
# P. aeruginosa = assay type: cell-based; settings: for MIC: P. aeruginosa strain PA005; for Peptide MIC values: agarose dilution
# S. pneumoniae = experiment: Agarose dilution assay (MIC); assay type: cell-based; settings: agarose dilution
compound,measurement,setting,value
CC[C@H](C)[C@H](NC(=O)[C@H](CC(C)C)NC(=O)[C@H](C)NC(=O)[C@@H]1CCCN1C(=O)[C@H](CC(C)C)NC(=O)[C@H](C)NC(=O)[C@@H](NC(=O)[C@@H](NC(=O)[C@@H](NC(=O)[C@@H](NC(=O)[C@H](CCCCN)NC(=O)[C@H](CCCCN)NC(=O)[C@H](CC(C)C)NC(=O)[C@@H](NC(=O)[C@H](CCCCN)NC(=O)[C@@H](NC(=O)[C@H](CC(C)C)NC(=O)[C@H](CC(N)=O)NC(=O)[C@H](CCCCN)NC(=O)[C@@H](NC(=O)[C@H](Cc1ccccc1)NC(=O)[C@H](CO)NC(=O)[C@H](CCCCN)NC(=O)[C@H](Cc1c[nH]c2ccccc12)NC(=O)[C@@H](N)CCCCN)[C@@H](C)CC)[C@@H](C)O)C(C)C)C(C)C)C(C)C)[C@@H](C)O)[C@@H](C)O)C(=O)N[C@@H](CO)C(=O)O [MBI 29A2] (H-KWKSFIKNLTKVLKKVVTTALPALIS-OH; N-terminus and C-terminus assumed),Ciprofloxacin MIC + Peptide,S. aureus [1]; S. aureus SA10,0.5 µg/mL
same,Peptide MIC + Ciprofloxacin,S. aureus [1]; S. aureus SA10,2 µg/mL
same,Ciprofloxacin MIC + Peptide,S. aureus [1]; S. aureus SA25,0.5 µg/mL
same,Peptide MIC + Ciprofloxacin,S. aureus [1]; S. aureus SA25,1 µg/mL
same,Ciprofloxacin MIC + Peptide,[2]; P. aeruginosa PA41,2 µg/mL
same,Peptide MIC + Ciprofloxacin,[2]; P. aeruginosa PA41,4 µg/mL
same,Peptide MIC Alone,[2]; P. aeruginosa PA41,8 µg/mL
same,Ciprofloxacin MIC + Peptide,[2]; P. aeruginosa PA77,1 µg/mL
same,Peptide MIC + Ciprofloxacin,[2]; P. aeruginosa PA77,8 µg/mL
same,Peptide MIC Alone,[2]; P. aeruginosa PA77,16 µg/mL
same,Ciprofloxacin MIC + Peptide,bacterial isolates; P. aeruginosa PA24,16 µg/mL
same,Peptide MIC + Ciprofloxacin,bacterial isolates; P. aeruginosa PA24,8 µg/mL
same,Ciprofloxacin MIC + Peptide,bacterial isolates; S. aureus SA10,0.5 µg/mL
same,Peptide MIC + Ciprofloxacin,bacterial isolates; S. aureus SA10,2 µg/mL
same,Ciprofloxacin MIC + Peptide,bacterial isolates; S. aureus SA93,8 µg/mL
same,Peptide MIC + Ciprofloxacin,bacterial isolates; S. aureus SA93,0.5 µg/mL
same,FIC,bacterial isolates; P. aeruginosa PA24,0.63
same,FIC,bacterial isolates; S. aureus SA10,0.52
same,FIC,bacterial isolates; S. aureus SA93,0.50
C/C(=C\C(=O)OCCCCCCCCC(=O)O)C[C@@H]1OC[C@H](C[C@@H]2O[C@H]2[C@@H](C)[C@H](C)O)[C@@H](O)[C@H]1O [Mupirocin],MIC,"S. aureus [1]; Staphylococcus aureus, S. aureus SBSA4, read-out: Mupirocin MIC Alone",> 100 µg/mL
same,MIC,"[3]; Escherichia coli, read-out: Mupirocin MIC Alone, E. coli",100 µg/mL
same,MIC,"[3]; Pseudomonas aeruginosa, read-out: Mupirocin MIC + Peptide, P. aeruginosa, peptide MBI 28",3 µg/mL
same,MIC,"[3]; Pseudomonas aeruginosa, read-out: Mupirocin MIC + Peptide, P. aeruginosa, peptide MBI 29A3",0.1 µg/mL
same,MIC,"[3]; Pseudomonas aeruginosa, read-out: Mupirocin MIC Alone, P. aeruginosa",> 100 µg/mL
same,MIC,"[3]; read-out: Mupirocin MIC + Peptide, E. coli, peptide MBI 11B4CN",3 µg/mL
same,MIC,"[3]; read-out: Mupirocin MIC + Peptide, E. coli, peptide MBI 11D18CN",1 µg/mL
same,MIC,"[3]; read-out: Mupirocin MIC + Peptide, E. coli, peptide MBI 21A1",3 µg/mL
same,MIC,"[3]; read-out: Mupirocin MIC + Peptide, E. coli, peptide MBI 26",3 µg/mL
same,MIC,"[3]; read-out: Mupirocin MIC + Peptide, E. coli, peptide MBI 28",0.1 µg/mL
same,MIC comb. (antibiotic agent),"[2]; E. faecium, with MBI 11CN",0.1 µg/mL
same,MIC comb. (antibiotic agent),"[2]; E. faecium, with MBI 11G13CN",0.1 µg/mL
same,MIC,"[2]; Enterococcus faecium, read-out: MIC alone (antibiotic agent), E. faecium",100 µg/mL
same,MIC comb. (antibiotic agent),"[2]; S. aureus, with MBI 11A1CN",1 µg/mL
same,MIC comb. (antibiotic agent),"[2]; S. aureus, with MBI 11CN",0.1 µg/mL
same,MIC comb. (antibiotic agent),"[2]; S. aureus, with MBI 11D18CN",0.1 µg/mL
same,MIC comb. (antibiotic agent),"[2]; S. aureus, with MBI 11F1CN",3 µg/mL
same,MIC comb. (antibiotic agent),"[2]; S. aureus, with MBI 21A1",0.1 µg/mL
same,MIC comb. (antibiotic agent),"[2]; S. aureus, with MBI 21A2",0.1 µg/mL
same,MIC comb. (antibiotic agent),"[2]; S. aureus, with MBI 21A10",0.3 µg/mL
same,MIC comb. (antibiotic agent),"[2]; S. aureus, with MBI 26",0.1 µg/mL
same,MIC comb. (antibiotic agent),"[2]; S. aureus, with MBI 29A3",0.1 µg/mL
same,MIC,"[2]; Staphylococcus aureus, read-out: MIC alone (antibiotic agent), S. aureus",> 100 µg/mL
same,MIC,"bacterial isolates; Escherichia coli, read-out: Mupirocin MIC Alone, E. coli ECO1",> 100 µg/mL
same,MIC,"bacterial isolates; Escherichia coli, read-out: Mupirocin MIC Alone, E. coli ECO2",100 µg/mL
same,MIC,"bacterial isolates; Escherichia coli, read-out: Mupirocin MIC Alone, E. coli ECO3",100 µg/mL
same,MIC,"bacterial isolates; Escherichia coli, read-out: Mupirocin MIC Alone, E. coli ECO5",100 µg/mL
same,MIC,"bacterial isolates; Escherichia coli, read-out: Mupirocin MIC Alone, E. coli SBECO1",100 µg/mL
same,MIC,"bacterial isolates; Escherichia coli, read-out: Mupirocin MIC Alone, E. coli SBECO2",> 100 µg/mL
same,MIC,"bacterial isolates; Pseudomonas aeruginosa, read-out: Mupirocin MIC Alone, P. aeruginosa PA2",> 100 µg/mL
same,MIC,"bacterial isolates; Pseudomonas aeruginosa, read-out: Mupirocin MIC Alone, P. aeruginosa PA3",> 100 µg/mL
same,MIC,"bacterial isolates; Pseudomonas aeruginosa, read-out: Mupirocin MIC Alone, P. aeruginosa PA4",> 100 µg/mL
same,MIC,"bacterial isolates; Pseudomonas aeruginosa, read-out: Mupirocin MIC Alone, P. aeruginosa SBPA1",> 100 µg/mL
same,MIC,"bacterial isolates; Serratia marcescens, read-out: Mupirocin MIC Alone, S. marcescens SBSM1",> 100 µg/mL
same,MIC,"bacterial isolates; Serratia marcescens, read-out: Mupirocin MIC Alone, S. marcescens SBSM2",> 100 µg/mL
same,MIC,"bacterial isolates; Staphylococcus aureus, read-out: Mupirocin MIC Alone, S. aureus SBSA3",100 µg/mL
same,MIC,"bacterial isolates; Staphylococcus aureus, read-out: Mupirocin MIC Alone, S. aureus SBSA4",> 100 µg/mL
ILRRWPWWPWRRK [MBI 11B1CN],MIC,E. coli; E. coli strain ECO003,8 µg/mL
same,MIC,K. pneumoniae; K. pneumoniae strain KP002,64 µg/mL
same,MIC,E. faecium; E. faecium strain EFM002,2 µg/mL
same,MIC,E. cloacae,>128 µg/mL
same,MIC,S. aureus [4]; S. aureus strain SA005,2 µg/mL
same,MIC,E. faecalis; E. faecalis strain EFS004,8 µg/mL
same,MIC,S. epidermidis; S. epidermidis strain SE001,2 µg/mL
same,MIC,S. marcescens; S. marcescens strain SMS004,>128 µg/mL
same,% Survival,[5]; 12 mg/kg ip,0%
same,% Survival,[5]; 18 mg/kg ip,30%
same,% Survival,[5]; 24 mg/kg ip,90%
same,MIC,S. maltophilia; S. maltophilia strain SMA001,64 µg/mL
same,MIC,A. calcoaceticus,32 µg/mL
same,MIC,P. aeruginosa,>128 µg/mL
ILWPWWPWRRK [MBI 11B8CN],MIC,E. coli; E. coli strain ECO002,16 µg/mL
same,Peptide MIC values,E. coli; E. coli ATCC 25922,32 µg/mL
same,Peptide MIC values,E. coli; E. coli NCTC 10418,4 µg/mL
same,MIC,K. pneumoniae; K. pneumoniae strain KP001,>128 µg/mL
same,MIC,E. faecium; E. faecium strain EFM001,16 µg/mL
same,Peptide MIC values,E. faecium; agarose dilution,8 µg/mL
same,MIC,E. cloacae,>128 µg/mL
same,MIC,S. aureus [4]; S. aureus strain SA009,4 µg/mL
same,Peptide MIC values,S. aureus [4]; S. aureus MRSA9,2 µg/mL
same,Peptide MIC values,S. aureus [4]; S. aureus MRSA13,32 µg/mL
same,Peptide MIC values,S. aureus [4]; S. aureus MRSA17,4 µg/mL
same,MIC,E. faecalis; E. faecalis strain EFS002,32 µg/mL
same,MIC,S. epidermidis; S. epidermidis strain SE002,4 µg/mL
same,MIC,S. marcescens; S. marcescens strain SMS003,>128 µg/mL
same,Peptide MIC values,"S. marcescens; agarose dilution, S. marcescens SM82",>128 µg/mL
same,% Survival,[5]; 12 mg/kg ip,0%
same,% Survival,[5]; 18 mg/kg ip,10%
same,Peptide MIC values,S. pneumoniae; S. pneumoniae 406LE8,>128 µg/mL
same,Peptide MIC values,S. pneumoniae; S. pneumoniae 60120,>128 µg/mL
same,Peptide MIC values,S. pneumoniae; S. pneumoniae ATCC 49619,128 µg/mL
same,MIC,S. maltophilia; S. maltophilia strain SMA002,128 µg/mL
same,MIC,A. calcoaceticus,>128 µg/mL
same,MIC,P. aeruginosa,>128 µg/mL
same,Peptide MIC values,P. aeruginosa; P. aeruginosa ATCC 27853,>128 µg/mL
same,Peptide MIC values,P. aeruginosa; P. aeruginosa NCTC 10662,>128 µg/mL
